Test results as given in PubChem BioAssay (NCI).
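Tested at 5 concentrations; 48 h exposure; 96-well plates; endpoints linearly interpolated, else capped at highest concentration. The concentration for full growth arrest is given as TGI.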

How the values were obtained:
Test in all cases: inhibition of tumour cell growth, NCI panel, 48 h
[1] = system: COLO 205 colon
[2] = system: HS 578T breast
[3] = system: K-562 leukemia
[4] = system: KM12 colon
[5] = system: MDA-MB-435
[6] = system: OVCAR-5 ovarian
[7] = system: SF-268 CNS
[8] = system: SK-MEL-28 melanoma
[9] = system: SW-620 colon
[10] = system: UACC-257 melanoma

C=CC1(CBr)CCC(C(C)(C)Br)O1 (stereo not drawn)
TGI [1]: 20.6 µM
TGI [2]: 39.6 µM
TGI [3]: > 25.9 µM
TGI [4]: 26.1 µM
TGI [5]: 26.6 µM
TGI [6]: 27.9 µM
TGI [7]: 38.2 µM
TGI [8]: 23.9 µM
TGI [9]: 10.5 µM
TGI [10]: 28.9 µM

CC1(C)N=C(N)N=C(N)N1c1ccc(CCCCc2ccc(Cl)cc2Cl)cc1
TGI [1]: 4.88 µM
TGI [2]: 22.9 µM
TGI [3]: > 100 µM
TGI [4]: 2.19 µM
TGI [5]: 13.9 µM
TGI [6]: 20.9 µM
TGI [7]: 15.9 µM
TGI [8]: 19.2 µM
TGI [9]: 12.9 µM
TGI [10]: 8.65 µM

COC(=O)[C@H]1ON2O[C@@H](O[C@H]3CCCC[C@@H]3C(C)(C)c3ccccc3)C[C@@H]3CC[C@H]1[C@@]32C
TGI [1]: > 100 µM
TGI [2]: > 100 µM
TGI [3]: > 100 µM
TGI [4]: > 100 µM
TGI [5]: > 100 µM
TGI [6]: > 100 µM
TGI [7]: > 100 µM
TGI [9]: > 100 µM
TGI [10]: > 100 µM

N#C[C@](CO)(NC(=O)OCc1ccccc1)C(F)F
TGI [1]: > 100 µM
TGI [2]: > 100 µM
TGI [3]: > 100 µM
TGI [4]: > 100 µM
TGI [5]: > 100 µM
TGI [6]: > 100 µM
TGI [7]: > 100 µM
TGI [8]: > 100 µM
TGI [9]: > 100 µM
TGI [10]: > 100 µM

O=S(=O)(O)Nc1ccc(-c2nc3ccccc3s2)cc1Cl
TGI [1]: > 100 µM
TGI [2]: > 100 µM
TGI [3]: > 100 µM
TGI [4]: > 100 µM
TGI [5]: > 100 µM
TGI [6]: > 100 µM
TGI [8]: > 100 µM
TGI [9]: > 100 µM
TGI [10]: > 100 µM

C=CCN1C(=O)/C(=C/c2cccs2)N=C1SC1OC(COC(=O)c2ccccc2)C(OC(=O)c2ccccc2)C1OC(=O)c1ccccc1 (stereo not drawn)
TGI [1]: > 100 µM
TGI [3]: > 100 µM
TGI [4]: > 100 µM
TGI [5]: > 100 µM
TGI [6]: > 100 µM
TGI [8]: > 100 µM
TGI [9]: > 100 µM
TGI [10]: > 100 µM

COc1cc(/C=C/C(=O)O)ccc1O
TGI [1]: > 100 µM
TGI [2]: > 100 µM
TGI [3]: > 100 µM
TGI [4]: > 100 µM
TGI [5]: > 100 µM
TGI [6]: > 100 µM
TGI [7]: > 100 µM
TGI [8]: > 100 µM
TGI [9]: > 100 µM
TGI [10]: > 100 µM

Nc1ccccc1Sc1ccc(Cl)cc1
TGI [1]: 44.1 µM
TGI [3]: 94.4 µM
TGI [4]: > 100 µM
TGI [6]: > 100 µM
TGI [7]: > 100 µM
TGI [8]: 64 µM
TGI [9]: > 100 µM
TGI [10]: 54.1 µM

CCC(/C=C/c1ccccc1)=N\NC(=S)N/N=C(/C=C/c1ccccc1)CC
TGI [1]: > 100 µM
TGI [2]: > 100 µM
TGI [3]: 98.8 µM
TGI [4]: > 100 µM
TGI [5]: > 100 µM
TGI [7]: > 100 µM
TGI [8]: > 100 µM
TGI [9]: > 100 µM
TGI [10]: > 100 µM

COC(=O)c1cc(C)ccc1CC(Cc1ccccc1C)C(=O)OC (stereo not drawn)
TGI [1]: > 100 µM
TGI [2]: > 100 µM
TGI [3]: > 100 µM
TGI [4]: > 100 µM
TGI [5]: 43.8 µM
TGI [7]: > 100 µM
TGI [8]: > 100 µM
TGI [9]: > 100 µM
TGI [10]: 91.9 µM

COC(=O)c1ccc(NCC2=CC(=O)c3ccccc3C2=O)cc1
TGI [1]: 31.6 µM
TGI [2]: 76.4 µM
TGI [3]: 32.2 µM
TGI [4]: 33 µM
TGI [5]: 30.3 µM
TGI [6]: 49.5 µM
TGI [7]: 66.2 µM
TGI [8]: 33.8 µM
TGI [9]: 54.5 µM
TGI [10]: 29.4 µM

C=C1CC(CNc2cc(Cl)nc(N)n2)C1
TGI [1]: > 100 µM
TGI [2]: > 100 µM
TGI [3]: > 100 µM
TGI [4]: > 100 µM
TGI [5]: > 100 µM
TGI [6]: > 100 µM
TGI [7]: > 100 µM
TGI [8]: > 100 µM
TGI [9]: > 100 µM
TGI [10]: > 100 µM

CC1CSc2nc3[nH]c(=S)[nH]c3c(=O)n2C1 (stereo not drawn)
TGI [1]: > 100 µM
TGI [3]: > 100 µM
TGI [4]: > 100 µM
TGI [5]: > 100 µM
TGI [6]: > 100 µM
TGI [7]: > 100 µM
TGI [8]: > 100 µM
TGI [9]: > 100 µM
TGI [10]: > 100 µM

COc1cccc2c1C(=O)c1ccc3cc(CO)cc(O)c3c1C2=O
TGI [1]: 3.32 µM
TGI [2]: 9.59 µM
TGI [3]: 3.74 µM
TGI [4]: 6.14 µM
TGI [5]: 0.359 µM
TGI [6]: 3.92 µM
TGI [7]: 5.18 µM
TGI [8]: 5.61 µM
TGI [9]: 1.2 µM
TGI [10]: 0.412 µM

CC1(C)OC2CN(C(=O)OCc3ccccc3)C(CO)C2O1 (stereo not drawn)
TGI [1]: > 100 µM
TGI [2]: > 100 µM
TGI [3]: > 100 µM
TGI [4]: > 100 µM
TGI [5]: > 100 µM
TGI [6]: > 100 µM
TGI [7]: > 100 µM
TGI [8]: > 100 µM
TGI [9]: > 100 µM
TGI [10]: > 100 µM

C=CCOc1ccc(C2c3c([nH][nH]c3=O)CC(C)(O)C2C(=O)OC)cc1OC (stereo not drawn)
TGI [1]: > 100 µM
TGI [2]: > 100 µM
TGI [4]: > 100 µM
TGI [5]: > 100 µM
TGI [6]: > 100 µM
TGI [7]: > 100 µM
TGI [8]: > 100 µM
TGI [9]: > 100 µM
TGI [10]: > 100 µM

CC1(C)OC[C@@]2([C@@H]3CC[C@@H](C3)C2(C)C)N1O
TGI [1]: > 100 µM
TGI [2]: > 100 µM
TGI [3]: > 100 µM
TGI [4]: > 100 µM
TGI [5]: > 100 µM
TGI [6]: > 100 µM
TGI [7]: > 100 µM
TGI [8]: > 100 µM
TGI [9]: > 100 µM
TGI [10]: > 100 µM

CCOC(=O)c1c(NC(=O)c2ccccc2)sc2c1CCC2
TGI [1]: > 100 µM
TGI [2]: > 100 µM
TGI [3]: > 100 µM
TGI [4]: > 100 µM
TGI [6]: > 100 µM
TGI [7]: > 100 µM
TGI [10]: > 100 µM

O/N=C1\CC2(N3CCOCC3)CCC1(Cc1ccccc1)CC2
TGI [1]: > 100 µM
TGI [3]: > 100 µM
TGI [4]: > 100 µM
TGI [5]: > 100 µM
TGI [6]: > 100 µM
TGI [7]: 76.6 µM
TGI [8]: > 100 µM
TGI [9]: > 100 µM
TGI [10]: > 100 µM

CC(=O)/C=C/c1c[nH]c(=O)[nH]c1=O
TGI [1]: 395 µM
TGI [3]: 967 µM
TGI [4]: 439 µM
TGI [6]: 618 µM
TGI [7]: 720 µM
TGI [8]: 504 µM
TGI [9]: 696 µM
TGI [10]: 641 µM

OCCCN(CCc1ccc(Cl)c(Cl)c1)CCN1CCCC1
TGI [2]: > 100 µM
TGI [3]: 46.2 µM
TGI [4]: > 100 µM
TGI [5]: 53.4 µM
TGI [6]: > 100 µM
TGI [7]: > 100 µM
TGI [9]: > 100 µM
TGI [10]: 36 µM

COc1ccc(/C=N/n2c(Cc3ccc(Cl)cc3)n[nH]c2=O)cc1
TGI [1]: > 100 µM
TGI [3]: > 100 µM
TGI [4]: > 100 µM
TGI [5]: > 100 µM
TGI [6]: > 100 µM
TGI [8]: > 100 µM
TGI [9]: > 100 µM
TGI [10]: > 100 µM

c1ccc(-c2cc(-c3cc(-c4ccccc4)n[nH]3)[nH]n2)cc1
TGI [1]: > 100 µM
TGI [2]: > 100 µM
TGI [3]: > 100 µM
TGI [4]: > 100 µM
TGI [5]: > 100 µM
TGI [6]: > 100 µM
TGI [7]: > 100 µM
TGI [10]: > 100 µM
